{"source": "ChEMBL document CHEMBL5257046", "about": "“Characterization of Serrulatane Diterpenoids in Eremophila phyllopoda subsp. phyllopoda by Triple High-Resolution α-Glucosidase/PTP1B/Radical Scavenging Profiling, NMR Spectroscopy, DFT-GIAO NMR, and Electronic Circular Dichroism Calculations” (J Nat Prod, 2023)", "key": {"[1]": {"target": "T1, Tyrosine-protein phosphatase non-receptor type 1 (Homo sapiens, UniProt P18031)", "T1 sequence (P18031 whole entry)": "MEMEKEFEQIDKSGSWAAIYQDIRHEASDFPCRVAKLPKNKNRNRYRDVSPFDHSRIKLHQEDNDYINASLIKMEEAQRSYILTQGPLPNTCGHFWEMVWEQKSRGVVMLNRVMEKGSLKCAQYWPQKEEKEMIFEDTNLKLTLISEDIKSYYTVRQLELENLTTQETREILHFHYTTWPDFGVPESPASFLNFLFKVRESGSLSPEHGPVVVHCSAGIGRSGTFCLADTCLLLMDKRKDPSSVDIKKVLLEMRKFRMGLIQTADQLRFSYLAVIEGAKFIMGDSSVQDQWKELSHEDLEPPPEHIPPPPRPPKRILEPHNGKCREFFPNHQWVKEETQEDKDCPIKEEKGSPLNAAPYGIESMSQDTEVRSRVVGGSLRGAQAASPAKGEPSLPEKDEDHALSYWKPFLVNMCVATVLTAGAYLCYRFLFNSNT", "assay": "Inhibition of PTP1B (unknown origin) using pNPP as substrate preincubated for 10 mins followed by substrate addition and measured every 30 sec for 10 mins by microplate photometer analysis"}, "Alpha glucosidase": {"target": "Alpha glucosidase (Homo sapiens, UniProt O43451+P10253+P14410+Q2M2H8)", "assay": "Inhibition of alpha-glucosidase (unknown origin) using p-nitrophenyl-glycoside as substrate preincubated for 10 mins followed by substrate addition by microplate reader analysis", "type": "protein assay"}}}
{"smiles": "CC(C)=CCC[C@H](C)c1cccc2c(O)cc(C)cc12", "values": [{"measurement": "IC50", "setting": "[1]", "result": 16.6, "unit": "µM"}]}
{"smiles": "CC(C)=CCC[C@H](C)[C@@H]1CC[C@@H](CO)c2c(O)cc(C)cc21", "values": [{"measurement": "IC50", "setting": "[1]", "result": 20, "unit": "µM"}, {"measurement": "IC50", "setting": "Alpha glucosidase", "result": 64.2, "unit": "µM"}]}
{"smiles": "CCCCCCCCCCCCCCCC(=O)C1=C(O)C(CO)OC1=O", "note": "(configuration not stated)", "values": [{"measurement": "IC50", "setting": "[1]", "result": 14.4, "unit": "µM"}]}
{"smiles": "CC(C)=CCC[C@H](CO)[C@@H]1CC[C@@H](CO)c2c(O)cc(C)cc21", "values": [{"measurement": "IC50", "setting": "Alpha glucosidase", "result": 28.4, "unit": "µM"}]}
{"smiles": "CC(C)=CCC[C@H](C)[C@@H]1C[C@H](O)[C@@H](C)c2c(O)cc(C)cc21", "values": [{"measurement": "IC50", "setting": "[1]", "result": 80, "unit": "µM"}]}
{"smiles": "CC(C)=CCC[C@H](C)[C@H]1c2cc(C)cc(O)c2[C@H](C)C[C@H]1O", "values": [{"measurement": "IC50", "setting": "[1]", "result": 105, "unit": "µM"}]}
